Experimental data as given in patent US10829501B2 (BRISTOL-MYERS SQUIBB COMPANY, priority 2016, dated 2020).
Structures can show the parent of a compound that is named as a salt.

Target: ROCK2 (Homo sapiens, UniProt O75116)
Assay: ROCK2 kinase inhibition assay (LABCHIP 3000 Reader, FITC peptide substrate);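 also: rho kinase reaction read by separating phosphorylated from unphosphorylated peptide on chip, with inhibition of kinase activity computed per concentration across a dose-response series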

ROCK2, sequence (O75116 whole entry, species assumed): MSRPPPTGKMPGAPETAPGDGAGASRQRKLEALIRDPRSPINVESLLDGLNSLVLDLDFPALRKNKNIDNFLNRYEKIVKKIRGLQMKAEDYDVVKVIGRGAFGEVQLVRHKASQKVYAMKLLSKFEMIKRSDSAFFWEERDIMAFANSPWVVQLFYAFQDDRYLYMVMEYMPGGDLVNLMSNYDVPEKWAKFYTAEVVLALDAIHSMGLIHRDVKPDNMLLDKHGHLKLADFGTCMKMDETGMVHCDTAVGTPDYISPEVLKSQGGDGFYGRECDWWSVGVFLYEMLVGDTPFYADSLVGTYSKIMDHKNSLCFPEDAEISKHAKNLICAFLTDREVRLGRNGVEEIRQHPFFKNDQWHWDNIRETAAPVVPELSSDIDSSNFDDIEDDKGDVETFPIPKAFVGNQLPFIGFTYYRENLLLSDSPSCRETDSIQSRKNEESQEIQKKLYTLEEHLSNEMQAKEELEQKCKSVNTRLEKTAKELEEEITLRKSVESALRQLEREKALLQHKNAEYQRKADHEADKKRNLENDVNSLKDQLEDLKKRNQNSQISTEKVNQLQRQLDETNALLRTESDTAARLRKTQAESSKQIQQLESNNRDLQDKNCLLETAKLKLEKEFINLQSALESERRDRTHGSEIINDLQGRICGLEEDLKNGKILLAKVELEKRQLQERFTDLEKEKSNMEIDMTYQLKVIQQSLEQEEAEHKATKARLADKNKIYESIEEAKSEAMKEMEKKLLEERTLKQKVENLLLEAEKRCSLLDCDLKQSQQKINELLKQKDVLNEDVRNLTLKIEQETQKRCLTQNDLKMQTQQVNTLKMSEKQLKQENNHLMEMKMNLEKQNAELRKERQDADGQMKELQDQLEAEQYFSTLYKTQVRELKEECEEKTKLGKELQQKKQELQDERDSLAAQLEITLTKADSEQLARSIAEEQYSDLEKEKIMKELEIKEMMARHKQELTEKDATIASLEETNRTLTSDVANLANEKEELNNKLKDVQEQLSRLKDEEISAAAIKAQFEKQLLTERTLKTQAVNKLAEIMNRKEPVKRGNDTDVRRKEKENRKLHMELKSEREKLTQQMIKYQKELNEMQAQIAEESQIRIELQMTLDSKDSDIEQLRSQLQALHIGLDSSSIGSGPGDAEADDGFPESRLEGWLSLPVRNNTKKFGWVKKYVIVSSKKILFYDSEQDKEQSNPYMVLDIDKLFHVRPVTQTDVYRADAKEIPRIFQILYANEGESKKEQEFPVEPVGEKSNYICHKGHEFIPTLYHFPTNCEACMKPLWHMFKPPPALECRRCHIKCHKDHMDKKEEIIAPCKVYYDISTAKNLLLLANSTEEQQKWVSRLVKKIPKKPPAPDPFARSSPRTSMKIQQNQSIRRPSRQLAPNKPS

Question: For COc1ccc(NC(=O)N[C@H]2CC3(C2)C[C@H](Oc2ccccc2C(N)=O)C3)cc1 (stereo partly drawn) [Example 40, 2-[((aR)-6-{[(4-methoxyphenyl)carbamoyl]amino}spiro[3.3]heptan-2-yl)oxy]benzamide], which IC50 is on record?
Answer: 50 to 250 nM

Question: NC(=O)c1ccccc1O[C@H]1CC2(C[C@H](NC(=O)N3Cc4ccccc4C3)C2)C1 (stereo partly drawn) [Example 41, N-[(aR)-6-(2-carbamoylphenoxy)spiro [3.3]heptan-2-yl]-2,3-dihydro-1H-isoindole-2-carboxamide] was tested. Which IC50 did it give?
Answer: 50 to 250 nM

Question: With [H][C@]1(Oc2ncccc2C(N)=O)C[C@@]2(C[C@H](NC(=O)c3cnn4c(C5CC5)c(OCC(C)(C)O)ccc34)C2)C1 (stereo partly drawn) [Example 42, N-((aR)-6-((3-carbamoylpyridin-2-yl)oxy)spiro[3.3]heptan-2-yl)-7-cyclopropyl-6-(2-hydroxy-2-methylpropoxy)pyrazolo[1,5-a]pyridine-3-carboxamide] as the compound, how does the IC50 read?
Answer: < 5 nM

Question: Which IC50 does the source give for [H][C@]1(Oc2ncccc2C(N)=O)C[C@@]2(C[C@H](NC(=O)c3cnn4c(CCC(F)(F)F)c(OCC(C)(C)O)ccc34)C2)C1 (stereo partly drawn) [Example 43, N-((aR)-6-((3-carbamoylpyridin-2-yl)oxy)spiro[3.3]heptan-2-yl)-6-(2-hydroxy-2-methylpropoxy)-7-(3,3,3-trifluoropropyl)pyrazolo[1,5-a]pyridine-3-carboxamide] here?
Answer: < 5 nM

Question: With [H][C@]1(Oc2ccncc2C(N)=O)C[C@@]2(C[C@H](NC(=O)c3cnn4cc(OCC(C)(C)O)ccc34)C2)C1 (stereo partly drawn) [Example 44, N-((aR)-6-((3-carbamoylpyridin-4-yl)oxy)spiro[3.3]heptan-2-yl)-6-(2-hydroxy-2-methylpropoxy)pyrazolo[1,5-a]pyridine-3-carboxamide] as the compound, how does the IC50 read?
Answer: 250 to 2500 nM

Question: For [H][C@]1(Oc2cnccc2C(N)=O)C[C@@]2(C[C@H](NC(=O)c3cnn4cc(OCC(C)(C)O)ccc34)C2)C1 (stereo partly drawn) [Example 45, N-((aR)-6-((4-carbamoylpyridin-3-yl)oxy)spiro[3.3]heptan-2-yl)-6-(2-hydroxy-2-methylpropoxy)pyrazolo[1,5-a]pyridine-3-carboxamide], which IC50 is on record?
Answer: 50 to 250 nM

Question: For [H][C@]1(Oc2ncccc2C(N)=O)C[C@@]2(C[C@H](NC(=O)c3nn(CC(C)(C)O)c4cc(-c5cnn(C)c5)ccc34)C2)C1 (stereo partly drawn) [Example 46, N-((aR)-6-((3-carbamoylpyridin-2-yl)oxy)spiro[3.3]heptan-2-yl)-1-(2-hydroxy-2-methylpropyl)-6-(1-methyl-1H-pyrazol-4-yl)-1H-indazole-3-carboxamide], which IC50 is on record?
Answer: < 5 nM

Question: With [H][C@]1(Oc2ncccc2C(N)=O)C[C@@]2(C[C@H](NC(=O)c3cnc4c(C5CC5)c(OCC(C)(C)F)ccn34)C2)C1 (stereo partly drawn) [Example 47, N-((aR)-6-((3-carbamoylpyridin-2-yl)oxy)spiro[3.3]heptan-2-yl)-8-cyclopropyl-7-(2-fluoro-2-methylpropoxy)imidazo[1,2-a]pyridine-3-carboxamide] as the compound, how does the IC50 read?
Answer: 5 to 50 nM

Question: With CC(C)(O)COc1ccc2c(C(=O)N[C@H]3CC4(C3)C[C@H](Oc3nnccc3C(N)=O)C4)cnn2c1 (stereo partly drawn) [Example 48, N-((aR)-6-((4-carbamoylpyridazin-3-yl)oxy)spiro[3.3]heptan-2-yl)-6-(2-hydroxy-2-methylpropoxy)pyrazolo[1,5-a]pyridine-3-carboxamide] as the compound, how does the IC50 read?
Answer: 50 to 250 nM

Question: With [H][C@]1(Oc2ncccc2C(N)=O)C[C@@]2(C[C@H](NC(=O)c3cnn4c(C5CC5)c(OCC(C)(C)F)ccc34)C2)C1 (stereo partly drawn) [Example 49, N-((aR)-6-((3-carbamoylpyridin-2-yl)oxy)spiro[3.3]heptan-2-yl)-7-cyclopropyl-6-(2-fluoro-2-methylpropoxy)pyrazolo[1,5-a]pyridine-3-carboxamide] as the compound, how does the IC50 read?
Answer: < 5 nM

Question: With [H][C@]1(Oc2ncccc2C(N)=O)C[C@@]2(C[C@H](NC(=O)c3nn(CC(C)(C)O)c4ccc(-c5cnn(C)c5)cc34)C2)C1 (stereo partly drawn) [Example 50, N-((aR)-6-((3-carbamoylpyridin-2-yl)oxy)spiro[3.3]heptan-2-yl)-1-(2-hydroxy-2-methylpropyl)-5-(1-methyl-1H-pyrazol-4-yl)-1H-indazole-3-carboxamide] as the compound, how does the IC50 read?
Answer: 5 to 50 nM

Question: How did the IC50 turn out when [H][C@]1(Oc2ncccc2C(N)=O)C[C@@]2(C[C@H](NC(=O)c3cc(-c4cnn(C(F)F)c4)cc(S(C)(=O)=O)c3)C2)C1 (stereo partly shown) [Example 51] was run?
Answer: 5 to 50 nM

Question: For [H][C@]1(Oc2ncccc2C(N)=O)C[C@@]2(C[C@H](NC(=O)c3cc(-c4cnn(C)c4)cc(S(C)(=O)=O)c3)C2)C1 (stereo partly shown) [Example 52], which IC50 is on record?
Answer: 5 to 50 nM

Question: Which IC50 does the source give for [2H]C([2H])([2H])n1cc(-c2cc(C(=O)N[C@H]3CC4(C3)C[C@H](Oc3ncccc3C(N)=O)C4)cc(S(C)(=O)=O)c2)cn1 (stereo partly shown) [Example 53, 2-{[(4s)-6-{3-methanesulfonyl-5-[1-(^2H3)methyl-1H-pyrazol-4-yl]benzamido}spiro[3.3]heptan-2-yl]oxy}pyridine-3-carboxamide] here?
Answer: 5 to 50 nM

Question: With [H][C@]1(Oc2ncccc2C(N)=O)C[C@@]2(C[C@H](NC(=O)c3cccc(-c4cnn(C)c4)c3)C2)C1 (stereo partly shown) [Example 54] as the compound, how does the IC50 read?
Answer: 50 to 250 nM

Question: Which IC50 does the source give for [H][C@]1(Oc2ncccc2C(N)=O)C[C@@]2(C[C@H](NC(=O)c3cccc(-c4cccc(S(C)(=O)=O)c4)c3)C2)C1 (stereo partly shown) [Example 55] here?
Answer: 50 to 250 nM

Question: How did the IC50 turn out when [H][C@]1(Oc2ncccc2C(N)=O)C[C@@]2(C[C@H](NC(=O)c3cc(Br)cc(OCCC(F)(F)F)c3)C2)C1 (stereo partly shown) [Example 56] was run?
Answer: 5 to 50 nM

Question: [H][C@]1(Oc2ncccc2C(N)=O)C[C@@]2(C[C@H](NC(=O)c3cc(OCCC(F)(F)F)cc(-c4cnn(C)c4)c3)C2)C1 (stereo partly shown) [Example 57] was tested. Which IC50 did it give?
Answer: 50 to 250 nM

Question: With [H][C@]1(Oc2ncccc2C(N)=O)C[C@@]2(C[C@H](NC(=O)c3cc(OCCC(F)(F)F)cc(-c4cccc(S(C)(=O)=O)c4)c3)C2)C1 (stereo partly shown) [Example 58] as the compound, how does the IC50 read?
Answer: 50 to 250 nM

Question: How did the IC50 turn out when [H][C@]1(Oc2ncccc2C(N)=O)C[C@@]2(C[C@H](NC(=O)c3cn4nc(OC)ccc4n3)C2)C1 (stereo partly drawn) [Example 59, N-((aR)-6-((3-carbamoylpyridin-2-yl)oxy)spiro[3.3]heptan-2-yl)-6-methoxyimidazo[1,2-b]pyridazine-2-carboxamide] was run?
Answer: 250 to 2500 nM

Question: How did the IC50 turn out when [H][C@]1(Oc2ncccc2C(N)=O)C[C@@]2(C[C@H](NC(=O)c3cnc4c(OC)cc(Cl)nn34)C2)C1 (stereo partly drawn) [Example 60, N-((aR)-6-((3-carbamoylpyridin-2-yl)oxy)spiro[3.3]heptan-2-yl)-6-chloro-8-methoxyimidazo[1,2-b]pyridazine-3-carboxamide] was run?
Answer: 250 to 2500 nM

Question: How did the IC50 turn out when [H][C@]1(Oc2ncccc2C(N)=O)C[C@@]2(C[C@H](NC(=O)c3cn4nc(OCC(F)(F)F)ccc4n3)C2)C1 (stereo partly drawn) [Example 61, N-((aR)-6-((3-carbamoylpyridin-2-yl)oxy)spiro[3.3]heptan-2-yl)-6-(2,2,2-trifluoroethoxy)imidazo[1,2-b]pyridazine-2-carboxamide] was run?
Answer: 50 to 250 nM

Question: With [H][C@]1(Oc2ncccc2C(N)=O)C[C@@]2(C[C@H](NC(=O)c3cn4nc(Cl)ccc4n3)C2)C1 (stereo partly drawn) [Example 62, N-((aR)-6-((3-carbamoylpyridin-2-yl)oxy)spiro[3.3]heptan-2-yl)-6-chloroimidazo[1,2-b]pyridazine-2-carboxamide] as the compound, how does the IC50 read?
Answer: 250 to 2500 nM

Question: How did the IC50 turn out when [H][C@]1(Oc2ncccc2C(N)=O)C[C@@]2(C[C@H](NC(=O)c3cn4cc(C(N)=O)ccc4n3)C2)C1 (stereo partly drawn) [Example 63, N^2-((aR)-6-((3-carbamoylpyridin-2-yl)oxy)spiro[3.3]heptan-2-yl)imidazo[1,2-a]pyridine-2,6-dicarboxamide] was run?
Answer: 250 to 2500 nM

Question: How did the IC50 turn out when CC(C)(O)COc1ccc2c(C(=O)N[C@H]3CC4(C3)C[C@H](Oc3ncccc3C(N)=O)C4)cnn2c1 (stereo partly drawn) [Example 64, N-((aR)-6-((3-carbamoylpyridin-2-yl)oxy)spiro[3.3]-heptan-2-yl)-6-(2-hydroxy-2-methylpropoxy) pyrazolo-[1,5-a]pyridine-3-carboxamide, trifluoroacetate] was run?
Answer: 5 to 50 nM

Question: For CC(C)(O)COc1ccn2c(C(=O)N[C@H]3CC4(C3)C[C@H](Oc3ncccc3C(N)=O)C4)cnc2c1C1CC1 (stereo partly drawn) [Example 65, N-((aR)-6-((3-carbamoylpyridin-2-yl)oxy)spiro[3.3]heptan-2-yl)-8-cyclopropyl-7-(2-hydroxy-2-methylpropoxy) imidazo[1,2-a]pyridine-3-carboxamide, trifluoroacetate], which IC50 is on record?
Answer: < 5 nM

Question: With Cn1nc(C(=O)N[C@H]2CC3(C2)C[C@H](Oc2ncccc2C(N)=O)C3)c2ccccc21 (stereo partly shown) [Example 66] as the compound, how does the IC50 read?
Answer: 5 to 50 nM

Question: For Cn1ncc2cc(C(=O)N[C@H]3CC4(C3)C[C@H](Oc3ncccc3C(N)=O)C4)ccc21 (stereo partly drawn) [Example 68, N-((aR)-6-((3-carbamoylpyridin-2-yl)oxy)spiro[3.3]heptan-2-yl)-1-methyl-1H-indazole-5-carboxamide, trifluoroacetae], which IC50 is on record?
Answer: 50 to 250 nM

Question: Which IC50 does the source give for Cn1c(C(=O)N[C@H]2CC3(C2)C[C@H](Oc2ncccc2C(N)=O)C3)cc2ccccc21 (stereo partly drawn) [Example 70, N-((aR)-6-((3-carbamoylpyridin-2-yl)oxy)spiro[3.3]heptan-2-yl)-1-methyl-1H-indole-2-carboxamide, trifluoroacetate] here?
Answer: 50 to 250 nM

Question: NC(=O)c1cccnc1O[C@H]1CC2(C[C@H](NC(=O)c3ccn4ccnc4c3)C2)C1 (stereo partly drawn) [Example 71, N-((aR)-6-((3-carbamoylpyridin-2-yl)oxy)spiro[3.3]-heptan-2-yl)imidazo[1,2-a] pyridine-7-carboxamdie, trifluoroacetate] was tested. Which IC50 did it give?
Answer: 250 to 2500 nM

Question: Which IC50 does the source give for NC(=O)c1cccnc1O[C@H]1CC2(C[C@H](NC(=O)c3cnc4ccccc4c3)C2)C1 (stereo partly drawn) [Example 72, N-((aR)-6-((3-carbamoylpyridin-2-yl)oxy)spiro[3.3]-heptan-2-yl)quinoline-3-carboxamide, trifluoroacetate] here?
Answer: 5 to 50 nM

Question: NC(=O)c1cccnc1O[C@H]1CC2(C[C@H](NC(=O)c3ccc(-n4cccn4)cc3)C2)C1 (stereo partly drawn) [Example 74, 2-((aR)-6-(4-(1H-pyrazol-1-yl)benzamido)spiro[3.3]heptan-2-yl)oxy) nicotinamide, trifluoroacetate] was tested. Which IC50 did it give?
Answer: 250 to 2500 nM

Question: For NC(=O)c1cccnc1O[C@H]1CC2(C[C@H](NC(=O)c3cn4ccccc4n3)C2)C1 (stereo partly drawn) [Example 75, N-((aR)-6-((3-carbamoylpyridin-2-yl)oxy)spiro[3.3]-heptan-2-yl)imidazo[1,2-a] pyridine-2-carboxamide, trifluoroacetate], which IC50 is on record?
Answer: 250 to 2500 nM

Question: How did the IC50 turn out when N#Cc1ccc2nc(C(=O)N[C@H]3CC4(C3)C[C@H](Oc3ncccc3C(N)=O)C4)cn2c1 (stereo partly drawn) [Example 76, N-((aR)-6-((3-carbamoylpyridin-2-yl)oxy)spiro-[3.3]heptan-2-yl)-6-cyanoimidazo-[1,2-a]pyridine-2-carboxamide, trifluoroacetate] was run?
Answer: 250 to 2500 nM
